Data on 24 compounds can be found in US9896445B2, “Heterocyclic inhibitors of ERK1 and ERK2 and their use in the treatment of cancer” (Asana Biosciences, LLC, priority 2015, dated 2018).

The IC50 is the midpoint of a concentration-inhibition curve. Read a high IC50 as weaker potency in that assay.

Counter-ions that a name gives are not always drawn.

In one experiment the target is T1, ERK2 (Homo sapiens, UniProt P28482).
T1 construct: purchased Jubilant Biosys
As to the kind of experiment: ERK2 HTRF (biochemical) assay. The procedure:
(§1) ERK1 and ERK2 HTRF (Biochemical) Assays
These assays employed a homogeneous time resolved fluorescence (HTRF) technique. The compounds were serially diluted by half-log with concentrations ranging from 0.0005 to 10 uM in the assay buffer (50 mM Tris pH=7.5, 1 mM EGTA, 2 mM DTT, 10 mM MgCl2, 0.1% Tween-20) and 20 uL of substrate-ATP mix [1 uM Biotin-LC-Myelin Basic Protein (MBP) derivatized Peptide (Anaspec)-24 uM ATP (Sigma)] was added to each well of the assay plate. Then 10 uL of enzyme mix [25 nM ERK1 or ERK2 (Jubilant Biosys) in assay buffer] was added to each well. The plate was incubated at room temperature for 60 min with shaking. The HTRF mix [625 nM LANCE® Ultra Europium-anti-phospho-MBP (Perkin Elmer) and 2 nM Phycolink® Streptavidin-Allophycocyanin (SA-APC) (Prozyme) in HTRF buffer (50 mM Tris-HCl pH=7.5, 100 mM NaCl, 0.1% BSA, 0.05% Tween20, 0.5 mM EDTA)] was prepared and 75 uL of this mix was added to the HTRF plate. After incubation for 60 min at room temperature, 10 uL of the reaction mixture was transferred to the HTRF assay plate and incubated for 45 min at room temperature with shaking. Plate was read using Pherastar in HTRF mode (excitation 337 nm, emission 665 & 620 nm). The IC50 values (half maximal inhibitory concentration values) were subsequently determined using a sigmoidal dose-response curve (variable slope) in GraphPad Prism® 5 software.
On the technique in general: Time-resolved FRET reads energy transfer from a long-lived donor to a nearby acceptor.

The next experiment deals with T2, ERK1 (Homo sapiens, UniProt P27361).
T2 construct: purchased Jubilant Biosys
T2 sequence (P27361 whole entry): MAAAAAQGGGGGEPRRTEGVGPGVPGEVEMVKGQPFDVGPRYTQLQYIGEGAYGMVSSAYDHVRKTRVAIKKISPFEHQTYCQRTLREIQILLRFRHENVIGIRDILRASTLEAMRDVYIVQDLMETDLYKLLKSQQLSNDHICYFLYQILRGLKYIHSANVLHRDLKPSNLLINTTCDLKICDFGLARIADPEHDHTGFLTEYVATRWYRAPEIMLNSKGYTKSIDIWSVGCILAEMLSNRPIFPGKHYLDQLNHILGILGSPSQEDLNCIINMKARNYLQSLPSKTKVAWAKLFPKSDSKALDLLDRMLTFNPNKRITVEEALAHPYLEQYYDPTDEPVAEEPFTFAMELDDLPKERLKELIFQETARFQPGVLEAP
Description: ERK1 HTRF (biochemical) assay. The procedure:
as §1
These assays employed a homogeneous time resolved fluorescence (HTRF) technique. […] The plate was incubated at room temperature for 60 min with shaking. […] The IC50 values (half maximal inhibitory concentration values) were subsequently determined using a sigmoidal dose-response curve (variable slope) in GraphPad Prism® 5 software.

T1 sequence (P28482 whole entry): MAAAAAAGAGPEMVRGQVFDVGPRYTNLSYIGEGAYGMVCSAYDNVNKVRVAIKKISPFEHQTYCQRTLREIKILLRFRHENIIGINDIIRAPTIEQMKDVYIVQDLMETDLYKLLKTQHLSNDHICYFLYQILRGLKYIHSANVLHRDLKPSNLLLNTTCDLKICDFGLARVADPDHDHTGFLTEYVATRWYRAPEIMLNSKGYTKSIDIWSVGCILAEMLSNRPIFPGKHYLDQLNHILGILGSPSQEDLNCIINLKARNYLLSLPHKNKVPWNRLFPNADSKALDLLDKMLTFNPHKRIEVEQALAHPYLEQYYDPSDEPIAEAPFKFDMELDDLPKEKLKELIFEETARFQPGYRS

In the case of `Cc1cnc(N[C@H]2CCOC2)nc1-n1cnc(C(=O)NCc2cccc(Cl)c2)c1` [Example 318, (S)-N-(3-chloro-benzyl)-1-(5-methyl-2-((tetrahydrofuran-3-yl)amino)-pyrimidin-4-yl)-1H-imidazole-4-carboxamide], the results for the IC50 on ERK2 (HTRF biochemical assay) and on ERK1 (HTRF biochemical assay) were at most 0.05 µM and below 0.05 µM, respectively.

As for `Cc1cnc(NC2CCOCC2)nc1-n1cnc(C(=O)NC(CO)c2ccc(Cl)s2)c1` (stereo not drawn) [Example 257, N-(1-(5-chlorothiophen-2-yl)-2-hydroxy-ethyl)-1-(5-methyl-2-((tetrahydro-2H-pyran-4-yl)amino)-pyrimidin-4-yl)-1H-imidazole-4-carboxamide], the IC50 at ERK2 (HTRF) was at most 0.05 µM; at ERK1 (HTRF), below 0.05 µM.

In the case of `Cc1cnc(Nc2cc3c(cc2Cl)OCO3)nc1-n1ccc(C(=O)NC(CO)c2cccc(Cl)c2)c1` (stereo not drawn) [Compound 101, 1-(2-((6-chloro-benzo[d][1,3]dioxol-5-yl)amino)-5-methylpyrimidin-4-yl)-N-(1-(3-chlorophenyl)-2-hydroxyethyl)-1H-pyrrole-3-carboxamide], the IC50 is at most 0.05 µM on ERK2 (HTRF) and below 0.05 µM on ERK1 (HTRF).

As for `O=C(NC(CO)c1ccccc1)c1ccn(-c2ccnc(Nc3ccc4c(c3)OCO4)c2)c1` (stereo not drawn) [Compound 76, 1-(2-(benzo[d][1,3]dioxol-5-ylamino)pyridin-4-yl)-N-(2-hydroxy-1-phenylethyl)-1H-pyrrole-3-carboxamide], the IC50 against ERK2 (HTRF) was at most 0.05 µM; on ERK1 (HTRF), below 0.05 µM.

Consider `Cc1cnc(Nc2ccc(F)cc2Cl)nc1-n1ccc(C(=O)NC(COC(=O)C(N)CC(C)C)c2ccccc2)c1` (stereo not drawn) [Compound 150, 2-(1-(2-((2-chloro-4-fluorophenyl)-amino)-5-methyl-pyrimidin-4-yl)-1H-pyrrole-3-carboxamido)-2-phenylethyl 2-amino-4-methyl-pentanoate], for which the IC50 against ERK2 (HTRF) was at most 0.05 µM; on ERK1 (HTRF), 0.1 to 0.5 µM.

For `Cc1cnc(NC2CCOCC2)nc1-n1cnc(C(=O)NCc2ccc(Cl)c(CO)c2)c1` [Example 330, N-(4-chloro-3-(hydroxymethyl)-benzyl)-1-(5-methyl-2-((tetrahydro-2H-pyran-4-yl)amino)-pyrimidin-4-yl)-1H-imidazole-4-carboxamide], the 50% inhibitory concentration (IC50) is at most 0.05 µM at ERK2 (HTRF biochemical assay) and below 0.05 µM at ERK1 (HTRF biochemical assay).

For the compound `Cc1cnc(Nc2cccc(N3CCOCC3)c2)nc1-n1cnc(C(=O)N[C@H](CN)c2cccc(Cl)c2)c1` [Example 272, (S)-N-(2-amino-1-(3-chlorophenyl)ethyl)-1-(5-methyl-2-((3-morpholino-phenyl)amino)pyrimidin-4-yl)-1H-imidazole-4-carboxamide], the values for the IC50 against ERK2 (HTRF) and at ERK1 (HTRF) were at most 0.05 µM and below 0.05 µM, respectively.

`Cc1cnc(NC2CCOCC2)nc1-n1cnc(C(=O)NC(CN)c2cccs2)c1` (stereo not drawn) [Example 267, N-(2-amino-1-(thiophen-2-yl)ethyl)-1-(5-methyl-2-((tetrahydro-2H-pyran-4-yl)amino)-pyrimidin-4-yl)-1H-imidazole-4-carboxamide]: the IC50 at ERK2 (HTRF) was at most 0.05 µM; on ERK1 (HTRF), below 0.05 µM.

Regarding `Cc1cnc(NC2CCOCC2)nc1-n1cnc(C(=O)NCc2cccc(Cl)c2F)c1` [Example 309, N-(3-chloro-2-fluorobenzyl)-1-(5-methyl-2-((tetrahydro-2H-pyran-4-yl)amino)-pyrimidin-4-yl)-1H-imidazole-4-carboxamide], the figures for the half-inhibitory concentration (IC50) on ERK2 (HTRF biochemical assay) and against ERK1 (HTRF biochemical assay) were at most 0.05 µM and below 0.05 µM, respectively.

As to `Cc1cnc(NC2CCOCC2)nc1-n1cnc(C(=O)N[C@@H](CN)c2cccc(Cl)c2)c1` (single isomer, unassigned) [Compound 225b], the half-maximal inhibitory concentration (IC50) is at most 0.05 µM at ERK2 (HTRF) and below 0.05 µM on ERK1 (HTRF).

For the compound `Cc1cnc(Nc2ccc3c(c2)OCCC3)nc1-n1ccc(C(=O)NC(CO)c2ccccc2)c1` (stereo not drawn) [Compound 186, 1-(2-(chroman-7-ylamino)-5-methyl-pyrimidin-4-yl)-N-(2-hydroxy-1-phenylethyl)-1H-pyrrole-3-carboxamide], the half-inhibitory concentration (IC50) on ERK2 (HTRF) is at most 0.05 µM; against ERK1 (HTRF), below 0.05 µM.

As for `Cc1cnc(NC2CC2)nc1-n1cc(C(=O)N[C@H](CO)c2cccc(Cl)c2)cn1` [Compound 39, (S)-N-(1-(3-chlorophenyl)-2-hydroxyethyl)-1-(2-(cyclopropylamino)-5-methylpyrimidin-4-yl)-1H-pyrazole-4-carboxamide], the IC50 on ERK2 (HTRF) is at most 0.05 µM; against ERK1 (HTRF), 0.05 to 0.1 µM.

Turning to `Cc1cnc(NC2CCCOC2)nc1-n1ccc(C(=O)N[C@H](CO)c2cccc(Cl)c2)c1` (stereo partly drawn) [Compound 156, N-((S)-1-(3-chloro-phenyl)-2-hydroxy-ethyl)-1-(5-methyl-2-((tetrahydro-2H-pyran-3-yl)amino)-pyrimidin-4-yl)-1H-pyrrole-3-carboxamide], the IC50 against ERK2 (HTRF) is at most 0.05 µM; at ERK1 (HTRF) it was below 0.05 µM.

With `Cc1cnc(NC2CCOCC2)nc1-n1cnc(C(=O)NCc2ccccc2CCO)c1` [Compound 243, N-(2-(2-hydroxy-ethyl)benzyl)-1-(5-methyl-2-((tetrahydro-2H-pyran-4-yl)amino)pyrimidin-4-yl)-1H-imidazole-4-carboxamide], the values for the IC50 against ERK2 (HTRF) and at ERK1 (HTRF) were at most 0.05 µM and below 0.05 µM, respectively.

On to `CCNc1ncc(C)c(-n2ccc(C(=O)NC(CO)c3ccccc3)c2)n1` (stereo not drawn) [Compound 130, 1-(2-(ethylamino)-5-methylpyrimidin-4-yl)-N-(2-hydroxy-1-phenylethyl)-1H-pyrrole-3-carboxamide], for which the half-inhibitory concentration (IC50) at ERK2 (HTRF) and against ERK1 (HTRF) was 0.1 to 0.5 µM throughout.

For `Cc1cnc(Nc2ccc3[nH]ncc3c2)nc1-n1ccc(C(=O)NC(CO)c2ccccc2)c1` (stereo not drawn) [Compound 140, 1-(2-((1H-indazol-5-yl)amino)-5-methylpyrimidin-4-yl)-N-(2-hydroxy-1-phenylethyl)-1H-pyrrole-3-carboxamide], the values for the IC50 against ERK2 (HTRF) and on ERK1 (HTRF) were at most 0.05 µM and below 0.05 µM, respectively.

Take `Cc1cnc(Nc2ccc(F)cc2)nc1-n1cc(C(=O)NC(CO)c2ccccc2)nc1C` (stereo not drawn) [Compound 153, 1-(2-((4-Fluorophenyl)amino)-5-methylpyrimidin-4-yl)-N-(2-hydroxy-1-phenylethyl)-2-methyl-1H-imidazole-4-carboxamide]: the half-inhibitory concentration (IC50) at ERK2 (HTRF) and against ERK1 (HTRF) was 0.1 to 0.5 µM in each case.

Take `COc1cc(Nc2ncc(C)c(-n3ccc(C(=O)NC(CO)c4ccccc4)c3)n2)ccc1F` (stereo not drawn) [Compound 154, 1-(2-((4-fluoro-3-methoxyphenyl)amino)-5-methyl-pyrimidin-4-yl)-N-(2-hydroxy-1-phenylethyl)-1H-pyrrole-3-carboxamide]: the IC50 was at most 0.05 µM against ERK2 (HTRF) and below 0.05 µM at ERK1 (HTRF).

In the case of `O=C(Nc1cnn(-c2ccnc(Nc3ccccc3)n2)c1)N[C@H](CO)c1cccc(Cl)c1` [Compound 12, (S)-1-(1-(3-chlorophenyl)-2-hydroxyethyl)-3-(1-(2-(phenyl-amino)pyrimidin-4-yl)-1H-pyrazol-4-yl)urea], the half-inhibitory concentration (IC50) was at most 0.05 µM against ERK2 (HTRF) and below 0.05 µM against ERK1 (HTRF).

Turning to `Cc1cnc(Nc2ccc3occc3c2)nc1-n1cnc(C(=O)NC(CO)c2cccc(Cl)c2)c1` (stereo not drawn) [Compound 132, 1-(2-(benzofuran-5-ylamino)-5-methylpyrimidin-4-yl)-N-(1-(3-chlorophenyl)-2-hydroxyethyl)-1H-imidazole-4-carboxamide], the IC50 against ERK2 (HTRF) was at most 0.05 µM; against ERK1 (HTRF), below 0.05 µM.

Turning to `Cc1cnc(Nc2ccc3occc3c2)nc1-n1ccc(C(=O)NC(CO)c2cccc(Cl)c2)c1` (stereo not drawn) [Compound 68, 1-(2-(benzofuran-5-ylamino)-5-methylpyrimidin-4-yl)-N-(1-(3-chlorophenyl)-2-hydroxyethyl)-1H-pyrrole-3-carboxamide], the half-inhibitory concentration (IC50) was at most 0.05 µM against ERK2 (HTRF) and below 0.05 µM against ERK1 (HTRF).

As to `Cc1cnc(Nc2ccc3[nH]cc(C4=CCNCC4)c3c2)nc1-n1ccc(C(=O)NC(CO)c2cccc(Cl)c2)c1` (stereo not drawn) [Compound 209, N-(1-(3-chlorophenyl)-2-hydroxyethyl)-1-(5-methyl-2-((3-(1,2,3,6-tetrahydro-pyridin-4-yl)-1H-indol-5-yl)amino)-pyrimidin-4-yl)-1H-pyrrole-3-carboxamide hydrochloride], the IC50 was at most 0.05 µM against ERK2 (HTRF) and below 0.05 µM against ERK1 (HTRF).

In the case of `Cc1cnc(Nc2cccnc2)cc1-n1ccc(C(=O)NC(CO)c2ccc(F)c(Cl)c2)c1` (stereo not drawn) [Compound 171, N-(1-(3-chloro-4-fluorophenyl)-2-hydroxyethyl)-1-(5-methyl-2-(pyridin-3-ylamino)pyridin-4-yl)-1H-pyrrole-3-carboxamide], the values for the half-inhibitory concentration (IC50) on ERK2 (HTRF) and at ERK1 (HTRF) were at most 0.05 µM and below 0.05 µM, respectively.

Turning to `O=C(N[C@H](CO)c1cccc(Cl)c1)c1cnn(-c2ccnc(Nc3ccccc3)n2)c1` [Compound 53, (S)-N-(1-(3-chlorophenyl)-2-hydroxyethyl)-1-(2-(phenylamino)pyrimidin-4-yl)-1H-pyrazole-4-carboxamide], the 50% inhibitory concentration (IC50) against ERK2 (HTRF) and at ERK1 (HTRF) was 0.1 to 0.5 µM throughout.
